Earlier results as cited in US20040053391A1, “Renal cell carcinoma-antigen G250-derived peptides that elicit both CD4+ and CD8+ T-cell responses” (Katholieke Universiteit Nijmegen, priority 2002, published 2004).

System: CD8+CTL's
Conditions: HLA-A2.1; Vissers et al. 1999, WO 01/98363

## G250 amino acid sequence from 254 to 262: previously identified HLA-A2.1-restricted CTL epitope of G250, comprised within 249-268 (HLSTAFARV; UniProt Q16790 254-262, looked up, fragment)
  CTL epitope character: HLA-A2.1-restricted CTL epitope that is both naturally processed and immunogenic
